# Test results published in PMC6753678, “Fueling Open Innovation for Malaria Transmission-Blocking Drugs: Hundreds of Molecules Targeting Early Parasite Mosquito Stages” (Frontiers in Microbiology, 2019).
# pIC50: −log10 of the molar value. Read-outs that look alike come from different tables or passages of the source.
# How the values were obtained:
# [1] = system: 3D7-strain P. falciparum asexual parasites; experiment: P. falciparum asexual growth inhibition assay (Pf GIA); type: cell-based, Plasmodium falciparum; details: dose response confirmation; read-out: Pf asexual growth inhibition assays IC50
# Experimental: The asexual activity of active compounds was tested in dose response with parasite lactate dehydrogenase (LDH) activity used as a readout of parasite viability as described in [Gamo et al. (2010)]. Briefly, 3D7-strain P. falciparum asexual parasites were diluted to 0.25% parasitemia, 2% hematocrit in culture medium composed of RPMI medium with 25 mM HEPES, 2% D-sucrose, 0.3% L-glutamine, 150 μM hypoxanthine plus 5% albumax. 25 μl of parasite inoculum was then dispensed into each well of a 384 well plate containing test compounds and positive (50 μM chloroquine) and negative (DMSO) controls. Plates were incubated for 72 h at 37°C in a 5% CO2, 5%O2, 90% N2 environment before being frozen at −70°C. Plates were then thawed and 70 μl of reaction mix (143 mM sodium L-lactate, 143 mM 3-acetyl pyridine adenine dinucleotide, […] Nitro Blue tetrazolium chloride, […] diaphorase (2.83 U/ml), 0.7% Tween 20, 100 mM Tris–HCl pH 8.0) was added to each well using a Multidrop Combi automated dispenser. Plates were shaken to mix and then absorbance at 650 nm was measured after 10 min incubation at room temperature. Percent inhibition of asexual growth was then calculated with respect to positive and negative controls. Data presented is the mean of three independent biological replicates.
# HepG2 cells = experiment: HepG2 cytotoxicity assay; details: for Pb ODA (this manuscript) HepG2 cytoxicity: HepG2 cytotoxicity listed with the Pb ODA data set (this manuscript); for pIC50: read-out: HepG2 cytotoxicity assay IC50, dose response confirmation; for Unified cytotox: unified HepG2 value across the three screens
# Experimental: Briefly, HepG2 cells were seeded onto compound-treated 384 well plates at a density of 2,500 cells per well in Minimal Essential Medium (MEM) plus 10% fetal bovine serum and 1% non-essential amino acids solution (NEAA). Cells were incubated with test compounds or 50 μM doxorubicin (positive) and DSMO (negative) controls at 37°C for 48 h in a humidified 5% CO2 atmosphere. […] Cell viability was then measured in a fluorescent plate reader and percent inhibition calculated with respect to positive and negative controls.
# [2] = system: P. berghei ookinete development; details: for % inhibition, Replicate A / % inhibition, Replicate B: primary screen at 1 μM
# [3] = read-out: Pb ODA (this manuscript) IC50, P. berghei ookinete development assay, this manuscript
# [4] = read-out: Pb Ookinete development assay IC50, dose response confirmation
# [5] = read-out: Pb ODA IC50, this manuscript
SMILES,pIC50 [1],Pb ODA (this manuscript) HepG2 cytoxicity (HepG2 cells) [µM],pIC50 (HepG2 cells),Is compound selective in assay? Pb ODA active? [2],"% inhibition, Replicate A [2] [%]","% inhibition, Replicate B [2] [%]","pIC50 [2, 3]","pIC50 [2, 4]",Unified cytotox (HepG2 cells) [µM],"Is compound selective in assay? Pb ODA active? ([2]; 1: YES, 0: NO)","pIC50 [2, 5]"
Cc1cc2nc(/N=C(\N)NC(=O)NC3CCCCC3)nc(C)c2cc1C [TCMDC-124528],6.40,8.51,5.07,1 (key: 1: YES; 0: NO),53.37,63.38,6.07,6.07,–,–,–
CCc1cc2c(Sc3nc4ccccc4[nH]3)ncnc2s1 [TCMDC-124553],5.76,–,4.00,–,56.26,84.90,–,6.00,100.00,1 (1: YES),6.00
Cc1ccc2nc(/N=C(\N)NC(=O)NC3CCCCC3)nc(C)c2c1 [TCMDC-124557],5.33,57.54,4.24,1 (key: 1: YES; 0: NO),85.28,75.31,5.76,5.76,–,–,–
COc1cccc(C=Cc2nc(=O)c3ccccc3o2)c1OC [TCMDC-124577],6.84,100.00,4.00,1 (key: 1: YES; 0: NO),107.06,83.20,7.30,7.31,–,–,–
c1ccc(CCNc2ncnc3c2[nH]c2ccccc23)cc1 [TCMDC-124578],6.57,–,4.98,–,104.22,87.03,–,6.43,10.59,1 (1: YES),6.43
O=C(c1cc(-c2ccco2)[nH]n1)N1CCN(S(=O)(=O)c2ccc(Cl)cc2)CC1 [TCMDC-124698],6.25,100.00,4.00,1 (key: 1: YES; 0: NO),67.42,51.92,5.95,5.95,–,–,–
O=C(c1cc(-c2ccco2)[nH]n1)N1CCN(S(=O)(=O)c2ccc(Br)cc2)CC1 [TCMDC-124699],6.75,100.00,4.00,1 (key: 1: YES; 0: NO),66.14,59.38,–,5.99,–,–,–
O=C(c1cc(-c2cccs2)[nH]n1)N1CCN(S(=O)(=O)c2ccc(Cl)cc2)CC1 [TCMDC-124702],7.57,42.17,4.37,0 (key: 1: YES; 0: NO),58.15,68.92,5.36,5.36,–,–,–
CCn1c(CN2CCC(C)CC2)nc2cc(NC(=O)c3cccs3)ccc21 [TCMDC-124730],6.74,–,4.12,–,78.95,101.97,–,6.46,75.86,1 (1: YES),–
COc1cc(OC)c(NC(=O)C2c3ccccc3C(=O)N(CC(C)C)C2c2cccs2)cc1Cl (stereo not shown) [TCMDC-124760],6.97,–,4.00,–,44.76,67.88,–,5.07,100.00,1 (1: YES),5.06
COc1cccc(CC(=O)N2CCC(n3c(C)nc4ccc(F)cc43)CC2)c1 [TCMDC-124792],6.68,–,4.00,–,59.80,82.85,–,6.10,100.00,1 (1: YES),6.10
Cl.O=C(NC1CCN(CC2(c3ccc(Cl)cc3)CCCCC2)CC1)c1cc[nH]n1 [TCMDC-124828],7.18,35.89,4.45,1 (key: 1: YES; 0: NO),40.92,76.27,5.79,5.79,–,–,–
Cc1cc(C(=O)NC2CCN(CC3(c4ccccc4)CCCCC3)CC2)on1 [TCMDC-124832],> 9.70,–,4.87,–,102.69,91.64,–,6.21,13.49,1 (1: YES),6.21
COc1coc(C(=O)NC2CCN(CC3(c4ccc(Cl)cc4)CCC3)CC2)c1OC [TCMDC-124835],6.97,–,4.28,–,73.94,84.15,–,6.05,52.48,1 (1: YES),6.05
O=C(NC1CCN(CC2(c3ccccc3F)CCCC2)CC1)c1ccn[nH]1 [TCMDC-124837],6.34,41.69,4.38,1 (key: 1: YES; 0: NO),77.91,70.40,5.83,5.83,–,–,–
Cc1ccc(C2(CN3CCC(NC(=O)c4[nH]ncc4Cl)CC3)CCCCC2)cc1 [TCMDC-124838],9.35,27.23,4.56,1 (key: 1: YES; 0: NO),44.93,53.77,5.84,5.84,–,–,–
Cc1ccc(C2(CN3CCC(NC(=O)c4ccn[nH]4)CC3)CCCCC2)cc1 [TCMDC-124839],6.86,43.15,4.37,1 (key: 1: YES; 0: NO),81.24,59.00,6.01,6.01,–,–,–
COc1ccc(NS(=O)(=O)c2cc(NC(=O)Cn3ccccc3=O)ccc2N2CCCCC2)cc1 [TCMDC-124874],6.31,–,4.00,–,66.12,73.52,–,5.89,100.00,1 (1: YES),5.90
